Entries after “also recorded” stand apart in the source; their conditions may differ.
Columns and labels:
[1] = test system: cap-dependent translation; assay: m7GTP pull down, cap-dependent translation; format: cell-based; conditions: HCC1954 shPDK1, BYL719 1 μM, 4 h
Method: 2 million cells were seeded in 10 cm plates and treated accordingly 12 hr after seeding. Lysates were prepared using m7GTP pull down buffer (50 mM Hepes, pH 7.4, 75 mM NaCl, 10 mM MgCl2, 1 mM DTT, 8 mM EGTA, 10 mM β-glycerophosphate, 0.5 mM Na3VO4, 0.5% Triton X-100) supplemented with protease and phosphatase inhibitors. Lysates were centrifuged at 13000 rpm for 10 min and supernatants were rotated for 2 h at 4° C. with 7-methyl-GTP-Sepharose or control Sepharose beads (Jena Bioscience). Beads were washed three times with m^7GTP pull down buffer, resuspended in Laemmli buffer, and associated proteins were detected by Western blot.

[2] = test system: HCC1954 cells; assay: cell viability, MTT assay; format: cell-based; conditions: HCC1954 shPDK1, 6 days
Method: (§1) Cell viability was measures using the MTT assay. Briefly, 5000 cells were seeded in 96 well plates, treated for 6 days, and assayed using 0,25% MTT (Sigma) and 50 mM sodium succinate (Sigma) solutions during 3 h. Formazan crystals were dissolved with DMSO and absorbance was measured at 570 nm of wavelength.

[3] = test system: JIMT1 cells; assay: cell viability, MTT assay; format: cell-based; conditions: JIMT1 shPDK1, 6 days
Method: as §1

[4] = test system: HCC1954 xenografts; assay: HCC1954 in vivo xenograft; design: species or system mice
Method: Animals were maintained and treated in accordance with Institutional Guidelines of Memorial Sloan Kettering Cancer Center (Protocol number 12-10-019). 5×10^6 cells in 1:1 PBS/Matrigel (Corning) were injected subcutaneously into six-week-old female athymic Foxn1^nu nude mice.
When tumors reached a volume of ˜150 mm^3 mice were randomized, treated, and tumors were measured twice a week during a month. At least 10 tumors per group were used in all the studies. […] Tumors were harvested at the end of the experiment three hours after the last dosage, fixed in 4% formaldehyde in PBS, and paraffin-embedded. […] Primary staining was followed by 60 minutes incubation with biotinylated goat anti-rabbit IgG (Vector labs) 1:200. Blocker D, Streptavidin-HRP and DAB detection kit (Ventana Medical Systems) were used according to the manufacturer instructions.

With Cc1nc(NC(=O)N2CCC[C@H]2C(N)=O)sc1-c1ccnc(C(C)(C)C(F)(F)F)c1 [BYL719] the “cap-dependent translation in PDK1 knockdown cells” value [1] was “decreased cap-dependent translation”, the “cell viability in PDK1 knockdown cells” value [2] was “decrease cell viability” and the “cell viability in PDK1 knockdown cells” value [3] was “decrease cell viability”. The “S6 phosphorylation (S240/4) and 4EBP1 (T37/46) in tumors, IHC” value ([4]; HCC1954 shGFP vs shPDK1 xenografts) was “inhibited only in shPDK1 xenografts”, the tumor growth ([4]; HCC1954 shGFP xenografts) was “modest delay in tumor growth” and the tumor growth ([4]; HCC1954 shPDK1 xenografts) was “durable tumor shrinkage”. For the same compound, the tumor growth ([4]; HCC1954 xenografts, BYL719 25 mg/kg daily p.o., GSK2334470 100 mg/kg i.p. 3 times/week, SGK1-inh 50 mg/kg daily p.o.) was “some antitumor activity” and the “pAKT (S473) in tumors, IHC” value ([4]; tumors collected at the end of the experiment) was “effectively suppressed AKT phosphorylation (S473); also recorded: sufficient to suppress pAKT”.
